According to patent US5187155A, “Anticoagulant peptides” (Board of Regents, The University of Texas System, priority 1989, dated 1993):
Several values for one entry are separate records, joined by “and”; a condition that tells them apart may be missing. Equal entries are not always repeated. Where a SMILES comes first, the peptide text is derived from it. Where no end group is shown, it is not given here.

Tests used:
[1] = molecular target: T1, Factor Xa:Factor Va complex (Homo sapiens, UniProt P12259); assay: Rate of thrombin formation (prothrombin activation by Factor Xa), chromogenic assay; assay type: biochemical; conditions: for Thrombin Formation (% of Control Rate): 200 μM final concentration of peptide
T1 sequence (P12259 29-737 limits assumed): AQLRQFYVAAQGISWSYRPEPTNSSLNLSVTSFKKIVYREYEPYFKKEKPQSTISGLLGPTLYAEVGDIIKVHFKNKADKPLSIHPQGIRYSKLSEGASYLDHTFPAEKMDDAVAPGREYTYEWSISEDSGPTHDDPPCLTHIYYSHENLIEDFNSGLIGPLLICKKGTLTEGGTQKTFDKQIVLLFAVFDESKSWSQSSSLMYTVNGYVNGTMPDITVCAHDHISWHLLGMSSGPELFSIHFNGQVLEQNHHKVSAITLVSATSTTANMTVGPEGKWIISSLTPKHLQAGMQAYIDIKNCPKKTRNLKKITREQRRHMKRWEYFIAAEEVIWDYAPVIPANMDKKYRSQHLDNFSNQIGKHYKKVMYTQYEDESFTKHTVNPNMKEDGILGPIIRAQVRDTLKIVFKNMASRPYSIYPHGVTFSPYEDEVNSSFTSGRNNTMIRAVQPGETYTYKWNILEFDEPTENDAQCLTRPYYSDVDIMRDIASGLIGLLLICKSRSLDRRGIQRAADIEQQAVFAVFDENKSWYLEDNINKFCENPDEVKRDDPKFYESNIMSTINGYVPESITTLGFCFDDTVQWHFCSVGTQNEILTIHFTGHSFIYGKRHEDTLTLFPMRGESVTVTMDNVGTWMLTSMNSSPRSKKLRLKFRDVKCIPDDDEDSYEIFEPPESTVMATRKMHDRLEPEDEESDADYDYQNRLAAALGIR
T1 sequence (P12259 1574-2224 limits assumed): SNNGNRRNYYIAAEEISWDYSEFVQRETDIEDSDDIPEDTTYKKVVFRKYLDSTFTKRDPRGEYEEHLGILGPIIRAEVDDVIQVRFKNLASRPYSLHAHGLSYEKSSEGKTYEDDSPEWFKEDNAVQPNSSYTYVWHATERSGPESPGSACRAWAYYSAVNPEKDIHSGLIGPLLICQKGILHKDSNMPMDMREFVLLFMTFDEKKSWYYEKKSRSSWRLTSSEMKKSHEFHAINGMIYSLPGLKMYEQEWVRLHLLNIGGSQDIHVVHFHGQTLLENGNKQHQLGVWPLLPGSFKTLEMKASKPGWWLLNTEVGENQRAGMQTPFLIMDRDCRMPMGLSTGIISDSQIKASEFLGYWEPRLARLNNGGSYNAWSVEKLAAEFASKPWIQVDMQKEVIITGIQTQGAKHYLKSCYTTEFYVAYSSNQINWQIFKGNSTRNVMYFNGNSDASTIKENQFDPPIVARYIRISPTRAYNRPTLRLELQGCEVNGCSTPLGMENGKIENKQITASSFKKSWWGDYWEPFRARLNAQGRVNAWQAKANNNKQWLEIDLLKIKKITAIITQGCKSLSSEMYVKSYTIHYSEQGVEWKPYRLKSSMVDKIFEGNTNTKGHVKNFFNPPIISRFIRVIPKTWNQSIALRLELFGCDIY
Experimental: b. Rate of Thrombin Formation: The ability of the synthetic peptides to inhibit Factor Xa function was assessed by their capacity to impede the rate of thrombin formation using a purified system and employing a specific thrombin chromogenic substrate. To 10 ul of Factor V (1.5 nM) was added 10 ul of phospholipid vesicles (30 uM), 3.3 ul of CaCl2 (100 mM) and 57 ul of TBS-BSA or synthetic peptide. The mixture was incubated at 37 degrees Centigrade for 15 minutes, after which 20 ul of Factor Xa (12 pM) and prothrombin (0.35 uM) were added to initiate the reaction.
At defined time intervals from initiation of either reaction (a) or (b), 20 ul aliquots were removed and added to a microtiter plate containing 80 ul of 50 mM Tris-HCl, 225 mM NaCl, 10 mM EDTA, pH 8.2. […] The rate of Factor Xa or thrombin formation was calculated from the slope of linear regressions of data plotted as a function of the initial rate of hydrolysis (OD 405/min) versus time and expressed as OD 405/min/min.
Factor Xa associates with activated Factor Va on a phospholipid surface in the presence of calcium. A chromogenic assay was used to investigate the ability of the panel of synthetic peptides to inhibit the activation of prothrombin by Factor Xa. In preliminary experiments it was determined that similar results were obtained whether prothrombin was added before or after factor Xa and that the 15 minute incubation period was sufficient for the peptide-protein interactions to reach equilibrium. […] Seven peptides prevented thrombin formation by greater than 40% when compared to reactions containing buffer only. These peptides represented the amino acid sequences 211-222, 237-262, 254-269, 267-283, 284-303, 363-375, 417-431. Thus, a limited number of synthetic peptides representing the primary structure of Factor Xa could inhibit this reaction and these were analyzed further.

[2] = molecular target: T2, intrinsic activation complex (factor IXa:factor VIIIa) (Homo sapiens, UniProt P00451+P00740); assay: Rate of Factor Xa formation by the intrinsic activation complex, kinetic chromogenic assay; assay type: biochemical; conditions: for Factor Xa Formation (% of Control Rate) Intrinsic: 1 mg/ml (0.29-1.1 mM) peptide, 30 min at 37 degrees preincubation
T2 construct: Factor IXa was produced from contact product (14) and isolated as previously described (12); made in house; host or cells: Factor IXa produced from isolated Factor IX with contact product; Factor VIII was a gift from Rorer Biotechnology, Inc
T2 sequence (P00740 47-191 limits assumed): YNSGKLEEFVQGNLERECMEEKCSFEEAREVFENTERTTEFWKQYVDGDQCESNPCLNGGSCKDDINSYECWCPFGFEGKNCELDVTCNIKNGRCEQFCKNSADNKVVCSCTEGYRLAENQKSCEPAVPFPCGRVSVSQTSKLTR
T2 sequence (P00740 227-461 limits assumed): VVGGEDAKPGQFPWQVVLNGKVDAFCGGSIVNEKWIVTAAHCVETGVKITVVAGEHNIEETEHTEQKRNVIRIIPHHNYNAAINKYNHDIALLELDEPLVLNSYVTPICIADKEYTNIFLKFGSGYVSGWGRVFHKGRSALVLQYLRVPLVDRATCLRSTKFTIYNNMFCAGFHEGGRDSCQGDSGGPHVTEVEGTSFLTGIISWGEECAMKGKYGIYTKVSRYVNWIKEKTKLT
T2 sequence (P00451 20-391 limits assumed): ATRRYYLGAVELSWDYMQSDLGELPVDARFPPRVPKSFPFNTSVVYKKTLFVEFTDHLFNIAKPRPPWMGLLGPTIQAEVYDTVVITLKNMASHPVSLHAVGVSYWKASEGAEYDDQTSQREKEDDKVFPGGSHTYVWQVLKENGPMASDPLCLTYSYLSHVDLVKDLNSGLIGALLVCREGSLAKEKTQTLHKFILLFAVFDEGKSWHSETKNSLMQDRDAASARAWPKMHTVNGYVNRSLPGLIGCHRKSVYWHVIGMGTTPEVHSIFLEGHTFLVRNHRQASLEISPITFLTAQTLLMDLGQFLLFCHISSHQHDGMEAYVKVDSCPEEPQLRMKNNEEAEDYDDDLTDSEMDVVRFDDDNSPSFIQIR
T2 sequence (P00451 392-759 limits assumed): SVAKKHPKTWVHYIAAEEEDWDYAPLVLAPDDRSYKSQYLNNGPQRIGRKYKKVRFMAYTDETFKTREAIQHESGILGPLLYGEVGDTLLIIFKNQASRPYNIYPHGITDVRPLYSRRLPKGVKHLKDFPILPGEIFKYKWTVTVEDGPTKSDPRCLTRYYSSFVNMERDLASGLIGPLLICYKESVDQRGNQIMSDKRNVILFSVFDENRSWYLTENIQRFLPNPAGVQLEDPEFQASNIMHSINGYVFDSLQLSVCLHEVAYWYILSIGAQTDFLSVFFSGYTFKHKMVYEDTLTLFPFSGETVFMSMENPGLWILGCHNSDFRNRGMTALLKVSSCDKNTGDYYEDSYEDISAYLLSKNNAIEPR
T2 sequence (P00451 1709-2351 limits assumed): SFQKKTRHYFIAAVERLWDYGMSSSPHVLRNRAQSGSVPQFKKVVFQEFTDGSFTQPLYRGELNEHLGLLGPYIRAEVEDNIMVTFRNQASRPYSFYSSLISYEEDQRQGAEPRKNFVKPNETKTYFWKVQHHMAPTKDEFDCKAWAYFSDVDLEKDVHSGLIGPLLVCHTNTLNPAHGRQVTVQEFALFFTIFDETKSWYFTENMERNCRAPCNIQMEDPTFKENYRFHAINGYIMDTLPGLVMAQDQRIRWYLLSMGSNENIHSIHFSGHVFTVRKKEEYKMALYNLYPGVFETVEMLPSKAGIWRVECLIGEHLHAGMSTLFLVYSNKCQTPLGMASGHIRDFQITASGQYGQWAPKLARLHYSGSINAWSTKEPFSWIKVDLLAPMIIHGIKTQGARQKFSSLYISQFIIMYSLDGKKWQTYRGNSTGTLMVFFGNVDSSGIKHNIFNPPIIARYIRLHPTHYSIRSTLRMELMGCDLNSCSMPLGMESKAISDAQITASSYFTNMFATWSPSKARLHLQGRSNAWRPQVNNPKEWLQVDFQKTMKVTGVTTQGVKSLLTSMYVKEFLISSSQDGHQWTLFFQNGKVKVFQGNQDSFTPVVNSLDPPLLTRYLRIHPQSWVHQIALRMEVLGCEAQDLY

RVV-X = RVV-X (Daboia siamensis, UniProt Q4PRD1+Q4PRD2+Q7LZ61); assay: biochemical; parameters: species or system Russell's viper
[3] = molecular target: extrinsic activation complex (factor VIIa:tissue factor) (Homo sapiens, UniProt P08709+P13726); assay: Rate of Factor Xa formation by the extrinsic activation complex, kinetic chromogenic assay; assay type: biochemical; conditions: for Factor Xa Formation (% of Control Rate) Extrinsic: 1 mg/ml (0.29-1.1 mM) peptide, 30 min at 37 degrees preincubation
Chain of extrinsic activation complex (factor VIIa:tissue factor) (P08709 61-212 limits assumed): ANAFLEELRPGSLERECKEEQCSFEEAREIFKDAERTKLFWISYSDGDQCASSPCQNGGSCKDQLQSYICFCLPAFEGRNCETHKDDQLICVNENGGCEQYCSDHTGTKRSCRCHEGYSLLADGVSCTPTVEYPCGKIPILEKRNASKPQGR
Chain of extrinsic activation complex (factor VIIa:tissue factor) (P08709 213-466 limits assumed): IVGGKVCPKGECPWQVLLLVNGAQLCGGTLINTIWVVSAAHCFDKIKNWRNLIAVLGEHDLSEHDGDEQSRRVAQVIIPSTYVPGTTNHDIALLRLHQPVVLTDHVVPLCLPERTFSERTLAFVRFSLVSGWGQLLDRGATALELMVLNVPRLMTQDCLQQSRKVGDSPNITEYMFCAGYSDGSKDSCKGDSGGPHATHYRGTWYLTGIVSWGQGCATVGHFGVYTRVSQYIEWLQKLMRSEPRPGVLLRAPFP
Chain of extrinsic activation complex (factor VIIa:tissue factor) (P13726 33-295): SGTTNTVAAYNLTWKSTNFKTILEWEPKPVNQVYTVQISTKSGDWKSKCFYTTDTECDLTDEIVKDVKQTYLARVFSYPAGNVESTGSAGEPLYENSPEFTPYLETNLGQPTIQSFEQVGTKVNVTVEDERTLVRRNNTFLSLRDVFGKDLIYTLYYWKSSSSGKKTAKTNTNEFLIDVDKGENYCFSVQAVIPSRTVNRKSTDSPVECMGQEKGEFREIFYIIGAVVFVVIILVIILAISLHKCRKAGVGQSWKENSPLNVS

[4] = system: Factor X coagulant activity, intrinsic pathway; assay: Two-stage clotting assay, intrinsic activation of Factor X
Experimental: (§1) Coagulation Assays: The effect of the synthetic peptide and antibodies to them on Factor X coagulation activity was determined using two-stage clotting assays specific for Factor X activation by the intrinsic, extrinsic, and RVV-X activation enzyme complexes.
(§2) For determination of extrinsic activation of Factor X, 50 ul of bovine Factor VII/X deficient plasma was added 50 ul each of 1.5 nM Factor VII/VIIa, 1% tissue factor, 25 mM CaCl2, and peptide in TBS-BSA. Following incubation for 30 min at 37 degrees Centigrade, coagulation was initiated by the addition of 50 ul of 200 nM of Factor X, and the time for clot formation was measured. […] Factor X (50 ul of 105 nM) was added to initiate the reaction and the time for clot formation measured. […] Factor X and Xa activity was measured by the addition of 50 ul of 25 nM Factor X and the time for clot formation determined. […]
(§3) Analogous determinations of the CI50 values were measured in each of the specific coagulation assays outlined above. Factor X/Xa activity in the presence of varying concentrations of peptide was measured by comparing the clotting times to a standard curve constructed from the log of the clot time versus the log of Factor X concentration in the same incubation mixtures lacking peptides. […]

[5] = system: Factor X coagulant activity, extrinsic pathway; assay: Two-stage clotting assay, extrinsic activation of Factor X
Experimental: as §1, §2, §3

[6] = system: Factor X coagulant activity, RVV-X pathway; assay: Two-stage clotting assay, RVV-X mediated activation of Factor X; parameters: species or system human
[7] = 267-283 at 6 uM, 284-303 at 60 uM, 417-431 at 600 uM, alone or mixed

## C[C@H](NC(=O)[C@H](CC(=O)O)NC(=O)[C@H](CCC(=O)O)NC(=O)[C@H](CCC(N)=O)NC(=O)[C@H](CCCCN)NC(=O)[C@@H](NC(=O)[C@H](CC(=O)O)NC(=O)[C@H](Cc1ccc(O)cc1)NC(=O)CNC(=O)[C@H](C)NC(=O)[C@H](CS)NC(=O)[C@@H](N)Cc1ccccc1)[C@@H](C)O)C(=O)N[C@@H](CS)C(=O)O [Peptide 363-375] (H-FCAGYDTKQEDAC-OH; N-terminus and C-terminus assumed)
[1]; Dixon plots, varying prothrombin
  mode of inhibition of prothrombin activation: noncompetitive

## AVLRLKTPITFRMNVAPACL [Peptide 284-303]
[2]
  Factor Xa Formation (% of Control Rate) Intrinsic: 0 % of Control Rate
[2]; Dixon plots, mean ± SD for 4 to 5 determinations, read-out: Ki for Factor X Activation, Intrinsic
  Ki: 3.05 ± 1.77 µM
[2]; chromogenic assay, read-out: Concentration for 50% Inhibition, Rate of Factor Xa Formation, Intrinsic
  IC50: 1700 nM and < 5000 nM
RVV-X
  Factor Xa Formation (% of Control Rate) RVVX: 34
RVV-X; read-out: Concentration for 50% Inhibition, Rate of Factor Xa Formation, RVV.X
  IC50: 104 µM
RVV-X; read-out: Ki for Factor X Activation, RVV-X
  Ki: 123 ± 23.9 µM
[3]
  Factor Xa Formation (% of Control Rate) Extrinsic: 19 % of Control Rate
[3]; [7]
  Factor X Activation (% Control) Experiment #1 Observed: 35.0 % Control
  Factor X Activation (% Control) Experiment #2 Observed: 47.8 % Control
[3]; Dixon plots, mean ± SD for 4 to 5 determinations, read-out: Ki for Factor X Activation, Extrinsic
  Ki: 73.6 ± 7.79 µM
[3]; chromogenic assay, read-out: Concentration for 50% Inhibition, Rate of Factor Xa Formation, Extrinsic
  IC50: 78 µM
[1]
  Thrombin Formation (% of Control Rate): 0 % of Control Rate
[1]; 200 uM of each peptide
  prevention of thrombin formation compared to buffer only: greater than 40%
[1]; assays varying the substrate prothrombin, read-out: Ki for Factor Xa Function
  Ki: 16.2 ± 4.54 µM
[4]; clot formation assay
  inhibition of intrinsic pathway Factor X coagulant activity: inhibited
[4]; read-out: Concentration for 50% Inhibition, Coagulant Activity, Intrinsic, clotting assay
  IC50: 46 µM
[5]; clot formation assay
  inhibition of extrinsic pathway-mediated Factor X coagulant activity: less potent inhibitor
[5]; read-out: Concentration for 50% Inhibition, Coagulant Activity, Extrinsic, clotting assay
  IC50: > 500 µM
[6]; clot formation assay
  inhibition of RVV-X pathway Factor X coagulant activity: inhibited
[6]; clotting assay, read-out: Concentration for 50% Inhibition, Coagulant Activity, RVV.X
  IC50: 14 µM

## CARGYTLADNGKAC [Peptide 111-124]
[2]
  Factor Xa Formation (% of Control Rate) Intrinsic: 121 % of Control Rate
RVV-X
  Factor Xa Formation (% of Control Rate) RVVX: 77
[3]
  Factor Xa Formation (% of Control Rate) Extrinsic: 83 % of Control Rate
[1]
  Thrombin Formation (% of Control Rate): 100 % of Control Rate

## IVGGQECKDGECPWQA(K) (C-terminal added Lys) [Peptide 195-210 + K]
[2]
  Factor Xa Formation (% of Control Rate) Intrinsic: 98 % of Control Rate
RVV-X
  Factor Xa Formation (% of Control Rate) RVVX: 76
[3]
  Factor Xa Formation (% of Control Rate) Extrinsic: 88 % of Control Rate
[1]
  Thrombin Formation (% of Control Rate): 99 % of Control Rate

## LYQAKRF *EGDRNTEQEEGG(K) [Peptide 238-259 + K]
[2]
  Factor Xa Formation (% of Control Rate) Intrinsic: 71 % of Control Rate
RVV-X
  Factor Xa Formation (% of Control Rate) RVVX: 100
[3]
  Factor Xa Formation (% of Control Rate) Extrinsic: 100 % of Control Rate
[1]
  Thrombin Formation (% of Control Rate): 98 % of Control Rate

## TEQE*GGEAVHEVEVVIK [Peptide 253-270]
RVV-X
  Factor Xa Formation (% of Control Rate) RVVX: 71
[3]; 400 uM peptide, Factor X 5.25-84 nM (FIG. 1)
  inhibition of the rate and extent of Factor X activation by the extrinsic activation complex: approximately 20%
[3]
  Factor Xa Formation (% of Control Rate) Extrinsic: 100 % of Control Rate

## VVIKHNRFTKETYDFDI [Peptide 267-283]
[3]; 400 uM peptide, Factor X 5.25-84 nM (FIG. 1), read-out: inhibition of the rate and extent of Factor X activation by the extrinsic activation complex
  inhibition at 400 µM: ≥ 90%
